Results on eleven compounds are retold here after ChEMBL document CHEMBL1201862, “PubChem BioAssay data set” (2004).

Molecules are shown by their SMILES.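 Interpolation was linear, between the two tested concentrations surrounding the appropriate level; five concentrations were tested over 48 hours in 96-well plates. GI50 is the concentration that inhibits growth by half.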 Calls of active or inactive are those of the source. Rule as the data show it: active = GI50 up to about 1.1 µM and inactive = higher.

Among the test systems are BT-549; CAKI-1; DU-145; HCT-116; Hs-578T; IGROV-1; LOX IMVI; MDA-MB-231; NCI-H23; NCI-H460; OVCAR-3; OVCAR-4; SF-295; SK-MEL-5; SK-OV-3; SNB-19; SR; SW-620; UACC-62; PC-3.
What all share (assay): NCI-60 cell line screen, 48 h

As to `CC1=C(C(=O)NNC(=O)c2ccccc2O)CC(C(=O)NNC(=O)c2ccccc2O)=C(C)N1`, the GI50 with BT-549 was 0.446 µM (active); in the test on CAKI-1 it was 0.993 µM (active); in the test on DU-145, 0.566 µM (active); in the test on HCT-116 it was 0.435 µM (active); in the test with Hs-578T it was 0.197 µM (active); with IGROV-1, 0.302 µM (active). Moreover, the GI50 in the test on LOX IMVI was 2.58 µM (inactive); in the test with MDA-MB-231, 5 µM (inactive); in the test on NCI-H23, 2.1 µM (inactive); in the test on NCI-H460 it was 0.533 µM (active); in the test on OVCAR-3 it was 1.55 µM (inactive); in the test with OVCAR-4 it was 9.4 µM (inactive). The GI50 is 0.535 µM (active) in the test with SF-295; 2.06 µM (inactive) with SK-MEL-5; 5.57 µM (inactive) in the test on SK-OV-3; 0.839 µM (active) with SNB-19; 0.64 µM (active) in the test with SR; 5.55 µM (inactive) in the test with SW-620. Moreover, the GI50 in the test with UACC-62 was 0.389 µM (active).

On to `CN(Cc1ccccc1)C(=S)S` [SODIUM BENZYL(METHYL)CARBAMODITHIOATE], for which the GI50 was 77.4 µM (inactive) in the test with BT-549; 37.4 µM (inactive) with CAKI-1; 53.5 µM (inactive) in the test with DU-145; 19.2 µM (inactive) in the test with HCT-116; 78.7 µM (inactive) in the test on Hs-578T; 52.2 µM (inactive) with IGROV-1. For the same compound, the GI50 was 27.9 µM (inactive) in the test on LOX IMVI; 88.5 µM (inactive) in the test with MDA-MB-231; 45.1 µM (inactive) in the test on NCI-H23; 40.1 µM (inactive) in the test with NCI-H460; 32 µM (inactive) in the test with OVCAR-3; 28.4 µM (inactive) in the test with OVCAR-4. The GI50 with SF-295 is 34 µM (inactive); in the test with SK-MEL-5, 48.3 µM (inactive); in the test on SK-OV-3, > 100 µM (inactive); with SR, 20.6 µM (inactive); with SW-620, 51.3 µM (inactive); in the test on UACC-62, 40.8 µM (inactive).

Consider `Cn1c(=O)c2c(nc3n(CC(O)CCl)c(=O)ccn23)n(C)c1=O` (stereo unspecified), for which the GI50 with BT-549 was > 100 µM (inactive); with CAKI-1 it was 17 µM (inactive); in the test with DU-145, 28.8 µM (inactive); in the test with HCT-116, 18.2 µM (inactive); with Hs-578T, 41.4 µM (inactive); in the test on IGROV-1 it was 20.8 µM (inactive). The GI50 with LOX IMVI is 29.1 µM (inactive); with MDA-MB-231, 31.3 µM (inactive); in the test on NCI-H23, 42.7 µM (inactive); in the test on NCI-H460, 29.9 µM (inactive); in the test on OVCAR-3, 77.1 µM (inactive); in the test on OVCAR-4, 61.8 µM (inactive). Further, the GI50 with PC-3 was > 100 µM (inactive); in the test on SF-295, 47.5 µM (inactive); in the test on SK-MEL-5 it was 62.5 µM (inactive); in the test with SK-OV-3 it was 45.1 µM (inactive); in the test with SNB-19 it was 60 µM (inactive); with SW-620 it was 46.8 µM (inactive). The GI50 with UACC-62 is 36.5 µM (inactive).

Take `CCOc1ccc2nc(NC(=O)C(=O)C(c3cnc4ccccc4n3)[N+](=O)[O-])sc2c1` (stereo unspecified): the GI50 was > 100 µM (inactive) with BT-549; > 100 µM (inactive) with CAKI-1; > 100 µM (inactive) with HCT-116; > 100 µM (inactive) in the test on Hs-578T; 41.4 µM (inactive) with IGROV-1; 61 µM (inactive) in the test on LOX IMVI. In addition, the GI50 with MDA-MB-231 is > 100 µM (inactive); with NCI-H23, 74.5 µM (inactive); in the test on NCI-H460, > 100 µM (inactive); with OVCAR-3, > 100 µM (inactive); with OVCAR-4 it was > 100 µM (inactive); in the test with PC-3, > 100 µM (inactive). In addition, the GI50 was > 100 µM (inactive) with SF-295; > 100 µM (inactive) with SK-MEL-5; > 100 µM (inactive) with SK-OV-3; 69.2 µM (inactive) in the test on SNB-19; > 100 µM (inactive) in the test on UACC-62.

Regarding `COC(=O)c1cc(O)c(O)c(O)c1-c1c(O)c(O)c(O)c(SC[C@H](NC(=O)OCc2ccccc2)C(=O)OCc2ccccc2)c1C(=O)OC`, the GI50 in the test on BT-549 was 34.7 µM (inactive); in the test on CAKI-1, 18.7 µM (inactive); in the test on DU-145, 39.2 µM (inactive); with HCT-116, 17.3 µM (inactive); with Hs-578T, 29.6 µM (inactive); with IGROV-1, 28.8 µM (inactive). Also, the GI50 in the test on LOX IMVI is 17.9 µM (inactive); with MDA-MB-231, 16.7 µM (inactive); in the test on NCI-H23, 22 µM (inactive); in the test with NCI-H460, 29.2 µM (inactive); with OVCAR-3, 34 µM (inactive); with OVCAR-4, 26.5 µM (inactive). For the same compound, the GI50 with PC-3 is 22.6 µM (inactive); in the test on SF-295 it was 35.3 µM (inactive); with SK-OV-3, 41.9 µM (inactive); in the test with SNB-19, 30.8 µM (inactive); in the test on SW-620 it was 23.8 µM (inactive); in the test with UACC-62, 22.3 µM (inactive).

As for `Nc1ccc2c(c1)C(=O)c1c(F)cccc1-2`, the GI50 is 39.3 µM (inactive) in the test with BT-549; 23.6 µM (inactive) with CAKI-1; 45 µM (inactive) in the test with DU-145; 30.5 µM (inactive) in the test with HCT-116; 27.9 µM (inactive) in the test on Hs-578T; 41.6 µM (inactive) in the test with LOX IMVI. Moreover, the GI50 in the test on MDA-MB-231 was 45.6 µM (inactive); with NCI-H23 it was 61.8 µM (inactive); in the test with NCI-H460, 31 µM (inactive); in the test on OVCAR-3, 25.9 µM (inactive); in the test on PC-3, 31.2 µM (inactive); with SF-295 it was 46 µM (inactive). Also, the GI50 with SK-MEL-5 is 25.5 µM (inactive); with SK-OV-3, 85.7 µM (inactive); with SNB-19, 53.1 µM (inactive); with SW-620, 34.5 µM (inactive); with UACC-62, 32 µM (inactive).

Regarding `Cc1c2cccc-2c(OCCOC(=O)n2ccnc2)cc2c1[nH]c1ccccc12`, the GI50 is 2.89 µM (inactive) in the test with BT-549; 3.66 µM (inactive) with CAKI-1; 6.24 µM (inactive) with DU-145; 3.33 µM (inactive) with HCT-116; 3.55 µM (inactive) in the test on Hs-578T; 1.77 µM (inactive) with IGROV-1. Besides, the GI50 with LOX IMVI is 1.89 µM (inactive); with NCI-H23, 2.44 µM (inactive); in the test with NCI-H460, 3.9 µM (inactive); in the test with OVCAR-3, 1.89 µM (inactive); with OVCAR-4, 2.32 µM (inactive); with PC-3, 1.75 µM (inactive). Further, the GI50 with SF-295 is 2.96 µM (inactive); in the test with SK-MEL-5, 2.42 µM (inactive); with SK-OV-3, 4.74 µM (inactive); in the test with SNB-19, 2.65 µM (inactive); in the test with SR it was 3.31 µM (inactive); with SW-620, 3.08 µM (inactive). In addition, the GI50 in the test with UACC-62 was 2.62 µM (inactive).

Turning to `Cc1c(Br)c(Br)c(C)[s+]1[O-]`, the GI50 was 16.3 µM (inactive) with BT-549; 13.7 µM (inactive) in the test with CAKI-1; 6 µM (inactive) in the test on HCT-116; 28.5 µM (inactive) with Hs-578T; 26.7 µM (inactive) in the test on IGROV-1; 11.1 µM (inactive) in the test with LOX IMVI. Also, the GI50 with MDA-MB-231 is 22.9 µM (inactive); in the test with NCI-H23 it was 25.3 µM (inactive); in the test on NCI-H460 it was 14.6 µM (inactive); with OVCAR-3, 5.92 µM (inactive); in the test on OVCAR-4 it was 26.2 µM (inactive); in the test on PC-3, 17.5 µM (inactive). For the same compound, the GI50 with SF-295 is 20 µM (inactive); in the test with SK-MEL-5, 10.4 µM (inactive); with SK-OV-3, 23.8 µM (inactive); with SNB-19, 20.7 µM (inactive); in the test with SR, 3.28 µM (inactive); in the test with SW-620, 8.89 µM (inactive). The GI50 with UACC-62 was 20.4 µM (inactive).

Regarding `Cc1ccc(O)c(-c2cc(-c3ccccc3)nc(/N=C\c3ccccc3)n2)c1`, the GI50 is 0.126 µM (active) in the test on BT-549; > 100 µM (inactive) in the test on DU-145; 28.4 µM (inactive) in the test on HCT-116; 25.3 µM (inactive) in the test with Hs-578T; 16.6 µM (inactive) in the test with IGROV-1; 21.8 µM (inactive) in the test with LOX IMVI. Also, the GI50 in the test with MDA-MB-231 is 77.3 µM (inactive); with NCI-H23, 24.4 µM (inactive); with NCI-H460 it was 17.9 µM (inactive); in the test with OVCAR-3, 23.7 µM (inactive); with OVCAR-4, 31.4 µM (inactive); in the test on PC-3, > 100 µM (inactive). Also, the GI50 in the test on SF-295 is 36.1 µM (inactive); with SK-MEL-5, 31.5 µM (inactive); in the test on SNB-19, 29.8 µM (inactive); with SR, 59.4 µM (inactive); in the test with SW-620 it was > 100 µM (inactive); in the test on UACC-62, 8.17 µM (inactive).

Consider `COc1cc(/C=C2\CCc3cc(OC)c(OC)cc3C2=O)cc(OC)c1`, for which the GI50 is 10.4 µM (inactive) in the test with BT-549; 8.67 µM (inactive) with CAKI-1; 9.98 µM (inactive) with DU-145; 3.81 µM (inactive) in the test with HCT-116; 23.9 µM (inactive) with Hs-578T; 7.35 µM (inactive) in the test on IGROV-1. Also, the GI50 with LOX IMVI is 6.3 µM (inactive); in the test with MDA-MB-231, 12.9 µM (inactive); in the test with NCI-H23 it was 10.9 µM (inactive); with NCI-H460, 5.41 µM (inactive); in the test with OVCAR-3 it was 4.47 µM (inactive); with OVCAR-4, 21.4 µM (inactive). Moreover, the GI50 in the test on PC-3 is 8.55 µM (inactive); in the test with SF-295, 3.92 µM (inactive); with SK-MEL-5 it was 3.87 µM (inactive); in the test with SK-OV-3, 14.2 µM (inactive); in the test on SNB-19, > 28.6 µM (inactive); in the test on SW-620 it was 6.19 µM (inactive). For the same compound, the GI50 in the test with UACC-62 was 3.75 µM (inactive).

In the case of `Cc1nnc(N)nc1C/C=C/C(C)Sc1ccc(Cl)cc1` (stereo unspecified), the GI50 in the test on BT-549 is 5.22 µM (inactive); in the test with CAKI-1 it was 7.94 µM (inactive); in the test with DU-145, 11.9 µM (inactive); with HCT-116 it was 5.74 µM (inactive); with Hs-578T, 7.14 µM (inactive); in the test with IGROV-1, 3.41 µM (inactive). The GI50 with LOX IMVI is 4.4 µM (inactive); in the test with MDA-MB-231, 20.1 µM (inactive); with NCI-H23, 5.47 µM (inactive); with NCI-H460, 7.55 µM (inactive); in the test with OVCAR-4, 10.1 µM (inactive); in the test on PC-3, 4.35 µM (inactive). Further, the GI50 was 2.77 µM (inactive) with SF-295; 6.08 µM (inactive) in the test with SK-MEL-5; 4.52 µM (inactive) in the test on SK-OV-3; 5.58 µM (inactive) in the test on SNB-19; 9.04 µM (inactive) in the test with SW-620; 5.33 µM (inactive) in the test on UACC-62.
